Laboratory results from PubChem BioAssay (NCI).
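48-hour exposure; five concentrations; linearly interpolated endpoints. Here, GI50 denotes the concentration required for 50% inhibition of growth. TGI is the concentration that stops growth completely.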

What was measured:
Experiment in all cases: NCI tumour cell line growth inhibition, 48 h
[1] = test system: 786-0 renal
[2] = test system: A498 renal
[3] = test system: A549 NSCLC
[4] = test system: ACHN renal
[5] = test system: BT-549 breast
[6] = test system: CAKI-1 renal
[7] = test system: CCRF-CEM leukemia
[8] = test system: COLO 205 colon
[9] = test system: DU-145 prostate
[10] = test system: EKVX NSCLC
[11] = test system: HCC-2998 colon
[12] = test system: HCT-116 colon
[13] = test system: HCT-15 colon
[14] = test system: HL-60(TB) leukemia
[15] = test system: HOP-62 NSCLC
[16] = test system: HOP-92 NSCLC
[17] = test system: HS 578T breast
[18] = test system: HT29 colon
[19] = test system: IGROV1 ovarian
[20] = test system: K-562 leukemia
[21] = test system: KM12 colon
[22] = test system: LOX IMVI melanoma
[23] = test system: M14 melanoma
[24] = test system: MALME-3M melanoma
[25] = test system: MCF7 breast
[26] = test system: MDA-MB-231 breast
[27] = test system: MDA-MB-435
[28] = test system: MOLT-4 leukemia
[29] = test system: NCI-H226 lung

## COc1ccc(CC(C)=C(c2ccc(OCCN3CCCC3)cc2)c2ccc(OCCN3CCCC3)cc2)cc1
[1]
  GI50: 2.78 µM
  TGI: 6.05 µM
[2]
  GI50: 3.01 µM
  TGI: 6.28 µM
[3]
  GI50: 3.1 µM
  TGI: 7.39 µM
[4]
  GI50: 3.36 µM
  TGI: 6.48 µM
[5]
  GI50: 3.04 µM
  TGI: 6.35 µM
[6]
  GI50: 4 µM
  TGI: 7.31 µM
[7]
  GI50: 3.97 µM
  TGI: 11.9 µM
[8]
  GI50: 0.904 µM
  TGI: 4.55 µM
[9]
  GI50: 3.32 µM
  TGI: 6.43 µM
[10]
  GI50: 3.68 µM
  TGI: 7.02 µM
[11]
  GI50: 2.46 µM
  TGI: 5.38 µM
[12]
  GI50: 1.76 µM
  TGI: 5.25 µM
[13]
  GI50: 1.28 µM
  TGI: 4.36 µM
[14]
  GI50: 4.14 µM
  TGI: 8.53 µM
[15]
  GI50: 3.74 µM
  TGI: 7.93 µM
[16]
  GI50: 0.773 µM
  TGI: 3.92 µM
[17]
  GI50: 2.99 µM
  TGI: 7.17 µM
[18]
  GI50: 0.84 µM
  TGI: 3.31 µM
[19]
  GI50: 3.78 µM
  TGI: 7.16 µM
[20]
  GI50: 0.497 µM
  TGI: 1.28 µM
[21]
  GI50: 3.49 µM
  TGI: 6.77 µM
[22]
  GI50: 1.07 µM
  TGI: 3.94 µM
[23]
  GI50: 0.722 µM
  TGI: 2.5 µM
[24]
  GI50: 3.57 µM
  TGI: 6.81 µM
[25]
  GI50: 0.841 µM
  TGI: 3.2 µM
[26]
  GI50: 3.25 µM
  TGI: 6.44 µM
[27]
  GI50: 0.721 µM
  TGI: 2.57 µM
[28]
  GI50: 2.07 µM
  TGI: 5.96 µM
[29]
  GI50: 3.2 µM
